Laboratory results reported in US20110301169A1, “Therapies for Treating Cancer Using Combinations of COX-2 Inhibitors and Antimetabolites” (priority 2007, published 2011).

Tests used:
[1] = Oral pharmacokinetics in rodents; format: in vivo, mice, rats
Description: (§1) Peak plasma concentrations were achieved between 1 and 3 hours after a dose of 5 mg/kg.

[2] = Oral pharmacokinetics in dogs; format: in vivo; conditions: dog, plasma, 5 mg/kg, read-out: elimination half life (t1/2)
Description: as §1

clinical = conditions: human, in vivo
Description: as §1

[3] = Oral pharmacokinetics in monkeys; format: in vivo; conditions: monkey, plasma, 5 mg/kg, read-out: elimination half life (t1/2) (converted)
Description: as §1

[4] = human, in vivo
[5] = system: human breast cancer cells (SK-BR-3); assay: SK-BR-3 model, tumor volume; format: in vivo, nude mice; conditions: COX-2 inhibitor in the diet, trastuzumab intravenously
Description: Mice are injected subcutaneously in the left paw (1×10^6 tumor cells suspended in 30% Matrigel) and tumor volume is evaluated using a phlethysmometer twice a week for 30-60 days. Implantation of human breast cancer cells (SK-BR-3) into nude mice produces tumors that will reach 0.6-2 ml between 30-50 days. […] The data is expressed as the mean+/−SEM. Student's and Mann-Whitney tests are used to assess differences between means using the InStat software package.
The efficacy of both agents are determined by measuring tumor volume.
B. In a second assay, mice injected with SK-BR-3 cancer cells are then treated with 5-FU on days 12 through 15. […] The efficacy of both agents are determined by measuring tumor volume.

HER2 [ErbB2] = HER2 [ErbB2] (Homo sapiens, UniProt P04626); conditions: cited from earlier work
HER2 [ErbB2], sequence (P04626 23-1255): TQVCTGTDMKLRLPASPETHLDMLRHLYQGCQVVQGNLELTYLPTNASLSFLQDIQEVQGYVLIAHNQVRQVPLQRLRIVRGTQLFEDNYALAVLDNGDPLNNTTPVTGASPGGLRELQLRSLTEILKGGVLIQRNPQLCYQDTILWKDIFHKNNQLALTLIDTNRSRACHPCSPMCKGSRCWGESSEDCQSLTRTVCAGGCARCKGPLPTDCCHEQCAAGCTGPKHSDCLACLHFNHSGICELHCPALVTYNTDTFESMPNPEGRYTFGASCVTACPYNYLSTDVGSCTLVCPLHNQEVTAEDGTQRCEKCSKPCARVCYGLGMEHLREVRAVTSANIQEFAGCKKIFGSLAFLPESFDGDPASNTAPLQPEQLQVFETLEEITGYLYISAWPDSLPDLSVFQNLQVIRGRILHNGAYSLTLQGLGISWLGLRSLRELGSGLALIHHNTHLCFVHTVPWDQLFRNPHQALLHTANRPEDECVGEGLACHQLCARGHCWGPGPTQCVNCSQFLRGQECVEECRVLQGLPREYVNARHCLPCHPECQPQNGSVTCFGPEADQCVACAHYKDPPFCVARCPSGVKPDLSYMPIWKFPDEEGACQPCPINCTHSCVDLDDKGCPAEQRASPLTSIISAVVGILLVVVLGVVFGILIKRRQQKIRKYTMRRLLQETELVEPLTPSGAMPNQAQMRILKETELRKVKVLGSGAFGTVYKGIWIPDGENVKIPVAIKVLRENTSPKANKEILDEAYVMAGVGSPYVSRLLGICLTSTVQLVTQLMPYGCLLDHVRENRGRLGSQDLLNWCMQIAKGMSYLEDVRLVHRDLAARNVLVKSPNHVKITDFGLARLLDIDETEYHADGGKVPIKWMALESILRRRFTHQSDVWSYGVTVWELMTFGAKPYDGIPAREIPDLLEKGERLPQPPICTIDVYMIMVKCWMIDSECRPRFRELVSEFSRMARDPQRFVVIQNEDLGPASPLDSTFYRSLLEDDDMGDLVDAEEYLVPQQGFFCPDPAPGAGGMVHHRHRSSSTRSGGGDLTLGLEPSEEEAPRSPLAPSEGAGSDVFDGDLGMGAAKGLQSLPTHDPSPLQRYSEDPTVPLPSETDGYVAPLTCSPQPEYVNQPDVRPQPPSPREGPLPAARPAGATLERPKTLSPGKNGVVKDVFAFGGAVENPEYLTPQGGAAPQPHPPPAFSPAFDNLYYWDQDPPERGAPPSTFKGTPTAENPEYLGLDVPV

BT474 tumor = assay: BT474 model, tumor growth delay (Example 9); format: in vivo, Female SCID mice; conditions: Groups 3, 4: 30 mg/kg, po, qd to end
Description: Female SCID mice were injected subcutaneously in the flank (1 mm^3 BT474 tumor) and tumor volume was evaluated using a caliper twice a week for up to 90 days, longer for responders. Upon reaching an average tumor size of 100-200 mg the treatment was begun. […] The endpoint for the study was when tumor volume reached 0.75 gins or 90 days, which ever came first.

[6] = system: MX1 (ER−, erbB2−) breast carcinoma; assay: MX1 human breast carcinoma xenograft, tumor growth delay (Example 11); format: in vivo, female athymic nude mice; conditions: alone
Description: The compound was administered orally on a continuous daily regimen in female athymic nude mice bearing established sc-implanted xenografts.

[7] = third assay (C): 5-FU i.p. 50 mg/kg on days 14 through 17

CCOc1ccc(-c2cc(C)cn2-c2ccc(S(N)(=O)=O)cc2)cc1
half-life ([1]; mouse, rat, plasma, po, 5 mg/kg, rodents, read-out: elimination half life (t1/2)): 4 to 5 h
Oral availability ([1]; rodent, compared with dogs and monkeys): greatest in rodent
half-life [2]: 4 to 5 h
half-life (clinical): 15 to 18 h
half-life [3]: ~2 h
gastric or duodenal toxicity [4]: no increase in gastric or duodenal toxicity compared to placebo

O=c1[nH]cc(F)c(=O)[nH]1 [5-FU]
reduction in tumor volume ([5]; second assay (B): 5-FU i.p. 50 mg/kg on days 12-15): 61%
reduction in tumor volume [5, 7]: 35%

COCC(=O)NC/C=C/c1ccc2ncnc(Nc3ccc(Oc4ccc(C)nc4)c(C)c3)c2c1 [CP-724,714]
Ki (HER2 [ErbB2]): 7 nM

Cc1ccc(-c2cc(C(F)(F)F)nn2-c2ccc(S(N)(=O)=O)cc2)cc1 [celecoxib]
% tumor growth delay (BT474 tumor): −28%
Median Total Time to Endpoint (BT474 tumor): 27.5 days
Difference from control (BT474 tumor; difference in median time to endpoint): −10.7

Nc1nc2[nH]cc(CCc3ccc(C(=O)N[C@@H](CCC(=O)[O-])C(=O)[O-])cc3)c2c(=O)[nH]1.[Na+].[Na+] [pemetrexed]
TGD (in words) [6]: no TGD

Cc1onc(-c2ccccc2)c1-c1ccc(S(N)(=O)=O)cc1 [valdecoxib]
reduction in tumor volume [5, 7]: 69%
